Source: patent US12570639B2, “Tetrahydroquinoline derivative and medicinal use thereof” (Toray Industries, Inc., priority 2020, dated 2026)

Tests used:
[1] = tested on: Human fibrosarcoma cells (HT-1080 cells); experiment: In vitro inhibitory action against ferroptosis (Erastin-induced cell death, Cell Counting Kit-8); assay type: cell-based; conditions: Erastin 3 μmol/L, 24 hours
[2] = In vitro radical scavenging action (DPPH method); conditions: 30 minutes at room temperature, maximum concentration 100 μmol/L
[3] = tested on: MOG-induced experimental autoimmune encephalomyelitis mouse model; experiment: Activity assessment 1 in MOG-induced experimental autoimmune encephalomyelitis mouse model; assay type: in vivo, C57BL/6J mice; conditions: 30 mg/kg orally twice daily for 15 days starting 55 days after MOG35-55 inoculation
Procedure: The effect of the compound of Example 1 on increase of neurological score was assessed in the MOG-induced experimental autoimmune encephalomyelitis mouse model. The MOG-induced experimental autoimmune encephalomyelitis mouse model was produced according to the method of Jianfeng et al. (The Journal of Immunology, 2009, vol. 182, p. 4036-4045) with partial modification. A PBS solution prepared to contain a synthetic partial peptide of MOG (MOG35-55; CSBio) at a concentration of 4 mg/mL was mixed with an equal volume of Freund's complete adjuvant, and a total of 0.1 mL (0.05 mL per flank) of the resulting MOG35-55 dosing solution was inoculated intradermally into the bilateral flanks of C57BL/6J mice (male, 10 weeks old, Charles River Laboratories Japan, Inc.). On the day of inoculation of the MOG35-55 dosing solution and on the second day after the inoculation, 200 μL of pertussis toxin (Sigma Co. LLC) prepared at a concentration of 1 μg/mL was further administered intraperitoneally to the mice. A test compound was administered orally at a dose of 30 mg/kg twice daily for a period of 15 days starting 55 days after the inoculation of the MOG35-55 dosing solution. The test compound was suspended in a 0.5% methylcellulose solution (hereinafter referred to as vehicle), and the resulting suspension was used. […]

[4] = tested on: MOG-induced experimental autoimmune encephalomyelitis mouse model; experiment: Activity assessment 5 in MOG-induced experimental autoimmune encephalomyelitis mouse model; assay type: in vivo, C57BL/6J mice; conditions: 10 mg/kg orally twice daily for 15 days starting 52 days after MOG35-55 inoculation; vs vehicle-dosing group (2.13)
Procedure: (§1) A PBS solution prepared to contain a synthetic partial peptide of MOG (MOG35-55; CSBio) at a concentration of 4 mg/mL was mixed with an equal volume of Freund's complete adjuvant, and a total of 0.1 mL (0.05 mL per flank) of the resulting MOG35-55 dosing solution was inoculated intradermally into the bilateral flanks of C57BL/6J mice (male, 10 weeks old, Charles River Laboratories Japan, Inc.). On the day of inoculation of the MOG35-55 dosing solution and on the second day after the inoculation, 200 μL of pertussis toxin (Sigma Co. LLC) prepared at a concentration of 1 μg/mL was further administered intraperitoneally to the mice.
(§2) The compound of Example 11, the compound of Example 32, and the compound of Example 36 were used as test compounds to assess the effect of the test compounds on increase of neurological score in the MOG-induced experimental autoimmune encephalomyelitis mouse model. […] In addition, the score was determined by the following criteria: 0, normal; 0.5, partial drooping tail; 1, full drooping tail or hind-limb weakness; 2, full drooping tail and hind-limb weakness; 3, hind-limb partial paralysis; 4, hind-limb complete paralysis; 5, fore- and hind-limb complete paralysis. […]

[5] = tested on: MOG-induced experimental autoimmune encephalomyelitis mouse model; experiment: Activity assessment 4 in MOG-induced experimental autoimmune encephalomyelitis mouse model; assay type: in vivo, C57BL/6J mice; conditions: 10 mg/kg orally twice daily for 16 days starting 52 days after MOG35-55 inoculation; vs vehicle-dosing group (2.25)
Procedure: as §1, §2

[6] = tested on: MOG-induced experimental autoimmune encephalomyelitis mouse model; experiment: Activity assessment 6 in MOG-induced experimental autoimmune encephalomyelitis mouse model; assay type: in vivo, C57BL/6J mice; conditions: 10 mg/kg orally twice daily for 12 days starting 52 days after MOG35-55 inoculation; vs vehicle-dosing group (2.13)
Procedure: as §1, §2

[7] = evaluation concentration 30 μmol/L
[8] = evaluation concentration 10 μmol/L

Compound: Cl.c1ccc(C2CCc3ccccc3N2)cc1 (stereo not shown) [Example 1, 2-phenyl-1,2,3,4-tetrahydroquinoline hydrochloride]
- Ferroptosis inhibition rate (%) [1, 7]: 110.5%
- EC50 [2]: > 100 µM
- neurological score ([3]; next day after last administration, mean, n=7): 1.29
- neurological score reduction rate ([3]; vs vehicle-dosing group (2.43)): 46.9%

Compound: NS(=O)(=O)c1ccc(C2CCc3ccccc3N2)cc1 (stereo not shown) [Example 33, 4-(1,2,3,4-tetrahydroquinolin-2-yl)benzenesulfonamide]
- Ferroptosis inhibition rate (%) [1, 7]: 84.88%
- EC50 [2]: > 100 µM
- neurological score reduction rate [4]: 38.2%

Compound: NC(=O)c1ccc(C2CCc3ccccc3N2)cc1 (stereo not shown) [Example 38, 4-(1,2,3,4-tetrahydroquinolin-2-yl)benzamide]
- Ferroptosis inhibition rate (%) [1, 7]: 104.0%
- EC50 [2]: > 100 µM
- neurological score reduction rate [5]: 27.8%

Compound: NS(=O)(=O)c1ccc(C2CCc3cc(F)ccc3N2)cc1 (stereo not shown) [Example 108, 4-(6-fluoro-1,2,3,4-tetrahydroquinolin-2-yl)benzenesulfonamide]
- Ferroptosis inhibition rate (%) [1, 8]: 83.78%
- EC50 [2]: > 100 µM
- neurological score reduction rate [6]: 29.4%

Compound: NS(=O)(=O)c1ccc(C2CCc3cc(Cl)ccc3N2)cc1 (stereo not shown) [Example 117, 4-(6-chloro-1,2,3,4-tetrahydroquinolin-2-yl)benzenesulfonamide]
- Ferroptosis inhibition rate (%) [1, 8]: 76.27%
- EC50 [2]: > 100 µM
- neurological score reduction rate [6]: 32.4%

Compound: Cc1ccc2c(c1)CCC(c1ccc(S(N)(=O)=O)cc1)N2 (stereo not shown) [Example 119, 4-(6-methyl-1,2,3,4-tetrahydro-quinolin-2-yl)benzenesulfonamide]
- Ferroptosis inhibition rate (%) [1, 8]: 89.67%
- EC50 [2]: > 100 µM
- neurological score reduction rate [5]: 33.3%
